In publication PMC7582776 (Molecules, 2020) one finds IC50 and Ki data, which are given here for 1 compound.

The structures appear in SMILES notation.

In test [1] the target is T1, CYP2C8 (Homo sapiens, UniProt P10632).
T1 construct: native enzyme in ultrapooled human liver microsomes
T1 sequence (P10632 1-490): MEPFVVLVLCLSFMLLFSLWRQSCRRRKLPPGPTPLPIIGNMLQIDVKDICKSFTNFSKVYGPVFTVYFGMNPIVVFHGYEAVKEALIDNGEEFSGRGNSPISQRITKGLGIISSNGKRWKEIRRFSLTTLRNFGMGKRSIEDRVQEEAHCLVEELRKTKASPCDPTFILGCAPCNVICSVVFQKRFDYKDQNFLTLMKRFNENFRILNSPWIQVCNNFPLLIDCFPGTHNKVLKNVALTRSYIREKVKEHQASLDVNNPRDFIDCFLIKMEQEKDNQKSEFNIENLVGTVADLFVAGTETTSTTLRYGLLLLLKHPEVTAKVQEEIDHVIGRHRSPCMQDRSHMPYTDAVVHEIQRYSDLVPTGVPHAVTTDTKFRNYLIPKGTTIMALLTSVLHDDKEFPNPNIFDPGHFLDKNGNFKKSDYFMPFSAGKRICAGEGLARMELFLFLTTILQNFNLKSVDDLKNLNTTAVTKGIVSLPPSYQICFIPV
In words: LC-MS/MS, amodiaquine N-de-ethylation (substrate cocktail). It counts as biochemical. The source says: LC-MS/MS, amodiaquine N-de-ethylation (substrate cocktail) on CYP2C8

Test [2] addresses T2, OATP1B1 (Homo sapiens, UniProt Q9Y6L6).
T2 construct: gene SLCO1B1; transiently overexpressed in HEK293 cells (Corning)
T2 sequence (Q9Y6L6 1-691): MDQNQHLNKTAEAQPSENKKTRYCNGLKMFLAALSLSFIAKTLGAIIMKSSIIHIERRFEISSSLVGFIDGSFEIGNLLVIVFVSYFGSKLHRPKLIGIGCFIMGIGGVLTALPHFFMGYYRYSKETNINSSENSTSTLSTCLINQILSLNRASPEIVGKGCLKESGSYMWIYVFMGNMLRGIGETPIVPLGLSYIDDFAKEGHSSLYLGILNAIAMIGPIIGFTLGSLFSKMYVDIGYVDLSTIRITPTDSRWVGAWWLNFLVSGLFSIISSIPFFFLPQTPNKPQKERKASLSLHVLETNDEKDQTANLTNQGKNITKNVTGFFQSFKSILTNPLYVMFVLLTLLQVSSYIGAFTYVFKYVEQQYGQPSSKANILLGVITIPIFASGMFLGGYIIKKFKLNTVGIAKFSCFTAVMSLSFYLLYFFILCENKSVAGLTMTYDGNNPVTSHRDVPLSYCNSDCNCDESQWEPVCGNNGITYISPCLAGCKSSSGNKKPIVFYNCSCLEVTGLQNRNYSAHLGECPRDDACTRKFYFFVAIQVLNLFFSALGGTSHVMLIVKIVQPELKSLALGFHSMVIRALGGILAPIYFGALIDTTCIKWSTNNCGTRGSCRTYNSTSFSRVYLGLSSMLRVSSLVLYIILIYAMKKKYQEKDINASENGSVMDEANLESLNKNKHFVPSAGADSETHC
In words: [3H]estrone-3-sulfate uptake in HEK293-OATP1B1 cells. The class given is cell-based.

The target in test [3] is T3, CYP2D6 (Homo sapiens, UniProt P10635).
T3 construct: native enzyme in ultrapooled human liver microsomes
In words: LC-MS/MS, bufuralol (substrate cocktail). It counts as biochemical.

For test [4], the target named is T2, OATP1B1. Kind of test: [3H]estrone-3-sulfate uptake in HEK293-OATP1B1 cells, Lineweaver-Burk. It counts as cell-based. The source says: [3H]estrone-3-sulfate uptake in HEK293-OATP1B1 cells, Lineweaver-Burk on OATP1B1
Another test concerns the target T4, CYP1A2 (Homo sapiens, UniProt P05177).
T4 construct: native enzyme in ultrapooled human liver microsomes
T4 sequence (P05177 2-516): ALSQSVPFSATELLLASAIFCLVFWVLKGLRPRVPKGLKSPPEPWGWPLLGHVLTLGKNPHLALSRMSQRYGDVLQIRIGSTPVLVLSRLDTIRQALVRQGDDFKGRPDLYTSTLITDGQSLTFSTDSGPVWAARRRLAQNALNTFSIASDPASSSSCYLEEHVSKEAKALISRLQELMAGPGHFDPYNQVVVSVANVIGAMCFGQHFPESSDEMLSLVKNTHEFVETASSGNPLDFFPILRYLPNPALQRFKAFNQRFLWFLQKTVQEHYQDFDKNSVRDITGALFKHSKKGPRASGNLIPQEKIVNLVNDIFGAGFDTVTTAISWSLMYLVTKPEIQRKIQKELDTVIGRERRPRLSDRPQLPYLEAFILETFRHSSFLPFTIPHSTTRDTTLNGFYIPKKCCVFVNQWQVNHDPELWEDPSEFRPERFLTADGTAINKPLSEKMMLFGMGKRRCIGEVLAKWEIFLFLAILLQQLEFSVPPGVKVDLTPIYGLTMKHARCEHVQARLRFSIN
In words: LC-MS/MS, phenacetin O-de-ethylation (substrate cocktail). It counts as biochemical. The text has this: LC-MS/MS, phenacetin O-de-ethylation (substrate cocktail) on CYP1A2

The target of test [5] is T5, CYP2C9 (Homo sapiens, UniProt P11712).
T5 construct: native enzyme in ultrapooled human liver microsomes
Kind of test: LC-MS/MS, diclofenac, Lineweaver-Burk/Dixon. The class given is biochemical.

In test [6] the target is T6, CYP2C19 (Homo sapiens, UniProt P33261).
T6 construct: native enzyme in ultrapooled human liver microsomes
Kind of test: LC-MS/MS, [S]-mephenytoin, Lineweaver-Burk/Dixon. The class given is biochemical.

Test [7] deals with T5, CYP2C9. In words: LC-MS/MS, diclofenac (substrate cocktail). It counts as biochemical.
In test [8] the target is T1, CYP2C8. Kind of test: LC-MS/MS, amodiaquine N-de-ethylation, Lineweaver-Burk/Dixon. It counts as biochemical. The text has this: LC-MS/MS, amodiaquine N-de-ethylation, Lineweaver-Burk/Dixon on CYP2C8
Test [9] concerns the target T7, CYP2B6 (Homo sapiens, UniProt P20813).
T7 construct: native enzyme in ultrapooled human liver microsomes
T7 sequence (P20813 1-491): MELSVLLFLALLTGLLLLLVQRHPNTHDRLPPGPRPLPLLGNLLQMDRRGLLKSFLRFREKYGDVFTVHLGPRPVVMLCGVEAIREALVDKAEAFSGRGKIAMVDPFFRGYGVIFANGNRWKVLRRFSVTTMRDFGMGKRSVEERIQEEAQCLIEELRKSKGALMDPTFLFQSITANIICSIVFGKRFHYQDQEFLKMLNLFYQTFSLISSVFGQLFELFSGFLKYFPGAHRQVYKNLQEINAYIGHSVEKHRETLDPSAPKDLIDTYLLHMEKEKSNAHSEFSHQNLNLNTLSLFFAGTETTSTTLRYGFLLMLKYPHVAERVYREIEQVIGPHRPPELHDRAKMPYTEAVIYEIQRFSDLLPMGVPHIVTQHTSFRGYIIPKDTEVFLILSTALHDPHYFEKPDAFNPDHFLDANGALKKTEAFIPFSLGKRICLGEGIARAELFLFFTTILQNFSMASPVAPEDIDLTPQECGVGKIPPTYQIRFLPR
Kind of test: LC-MS/MS, bupropion hydroxylation. It counts as biochemical. The source says:
LC-MS/MS, bupropion hydroxylation on CYP2B6

For test [10], the target named is T7, CYP2B6. Kind of test: LC-MS/MS, bupropion hydroxylation, Lineweaver-Burk/Dixon. The class given is biochemical. The text has this:
LC-MS/MS, bupropion hydroxylation, Lineweaver-Burk/Dixon on CYP2B6

In test [11] the target is T6, CYP2C19. In words: LC-MS/MS, [S]-mephenytoin (substrate cocktail). The class given is biochemical.
In test [12] the target is T3, CYP2D6. Kind of test: LC-MS/MS, bufuralol, Lineweaver-Burk/Dixon. It counts as biochemical.

T6 sequence (P33261 whole entry): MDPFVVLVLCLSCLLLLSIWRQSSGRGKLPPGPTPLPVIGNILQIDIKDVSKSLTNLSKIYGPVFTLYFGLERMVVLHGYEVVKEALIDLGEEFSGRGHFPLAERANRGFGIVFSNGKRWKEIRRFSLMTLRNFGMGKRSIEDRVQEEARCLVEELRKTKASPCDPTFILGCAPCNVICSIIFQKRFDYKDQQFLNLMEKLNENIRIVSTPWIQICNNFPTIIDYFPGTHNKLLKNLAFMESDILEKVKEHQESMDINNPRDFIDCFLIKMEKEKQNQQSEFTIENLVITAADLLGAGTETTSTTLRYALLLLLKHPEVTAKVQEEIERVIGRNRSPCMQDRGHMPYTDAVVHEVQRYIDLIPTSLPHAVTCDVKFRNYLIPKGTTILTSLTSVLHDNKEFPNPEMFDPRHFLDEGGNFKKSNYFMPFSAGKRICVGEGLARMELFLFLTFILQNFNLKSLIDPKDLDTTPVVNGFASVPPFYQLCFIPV
T3 sequence (P10635 whole entry): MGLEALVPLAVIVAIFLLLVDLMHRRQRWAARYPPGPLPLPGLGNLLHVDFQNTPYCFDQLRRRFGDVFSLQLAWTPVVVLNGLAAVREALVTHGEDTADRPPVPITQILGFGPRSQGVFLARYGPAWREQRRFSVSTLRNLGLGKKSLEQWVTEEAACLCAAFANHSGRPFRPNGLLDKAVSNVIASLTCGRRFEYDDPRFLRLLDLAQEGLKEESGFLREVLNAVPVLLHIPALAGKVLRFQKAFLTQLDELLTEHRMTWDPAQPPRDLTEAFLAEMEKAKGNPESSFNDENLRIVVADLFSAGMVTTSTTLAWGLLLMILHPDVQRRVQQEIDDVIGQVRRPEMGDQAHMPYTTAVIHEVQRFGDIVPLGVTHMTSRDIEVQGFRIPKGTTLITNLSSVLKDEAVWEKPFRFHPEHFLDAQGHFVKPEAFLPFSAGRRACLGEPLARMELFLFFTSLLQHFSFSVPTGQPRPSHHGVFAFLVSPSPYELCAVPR
T5 sequence (P11712 whole entry): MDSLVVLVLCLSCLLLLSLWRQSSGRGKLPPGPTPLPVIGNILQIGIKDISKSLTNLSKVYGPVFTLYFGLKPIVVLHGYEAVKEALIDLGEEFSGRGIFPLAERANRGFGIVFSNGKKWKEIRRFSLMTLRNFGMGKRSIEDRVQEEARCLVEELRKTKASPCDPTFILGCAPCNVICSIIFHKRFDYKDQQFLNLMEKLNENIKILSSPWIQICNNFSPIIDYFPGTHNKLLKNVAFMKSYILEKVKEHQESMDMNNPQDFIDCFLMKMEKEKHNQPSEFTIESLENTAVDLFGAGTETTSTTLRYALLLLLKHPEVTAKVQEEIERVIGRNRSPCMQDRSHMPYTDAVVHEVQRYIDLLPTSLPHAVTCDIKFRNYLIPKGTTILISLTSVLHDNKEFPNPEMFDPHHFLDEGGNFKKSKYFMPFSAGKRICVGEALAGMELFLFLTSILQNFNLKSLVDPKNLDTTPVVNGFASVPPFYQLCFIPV

For the compound `CC(C)[C@H](NC(=O)c1nn(Cc2ccc(F)cc2)c2ccccc12)C(N)=O` [AB-FUBINACA, N-[(1S)-1-(aminocarbonyl)-2-methylpropyl]-1-[(4-fluorophenyl)methyl]-1H-indazole-3-carboxamide], the IC50 – broadly, the point on the concentration scale where inhibition reaches its midpoint – is 44.3 µM against CYP2C8 [1]; 85.6 µM on OATP1B1 [2]; 40.4 µM against CYP2D6 [3]; more than 100 µM against CYP1A2; 13.5 µM against CYP2C9 [7]; 29.9 µM against CYP2B6 [9]. For the same compound, the IC50 at CYP2C19 [11] is 19.7 µM. Also, the Ki (in general, the dissociation constant of the complex between target and ligand, obtained from inhibition or displacement) at OATP1B1 [4] is 94.4 µM; on CYP2C9 [5] it was 13.1 µM; on CYP2C19 [6] it was 6.3 µM; at CYP2C8 [8] it was 19.9 µM; on CYP2B6 [10] it was 15 µM; at CYP2D6 [12] it was 20.8 µM.
